Assay results: patent US9557338B2 (SIGNAL PHARMACEUTICALS, LLC, priority 2012, dated 2017)
Like-named read-outs stand apart in the source and are kept apart here.

Legend:
GSK-3β = test: MSD assay, GSK-3β phosphorylation in cell lysates; type: cell-based
Phospho-p70S6K (T389) = test: MSD assay, phospho-p70S6K (T389) in cell lysates; type: cell-based
Protocol: Determination of Phospho-p70S6K (T389) in Cell Lysates.
MSD® biomarker detection assays provide a rapid and convenient method for measuring the total and phosphorylated levels of protein targets within a single small-volume sample. In the assay, an antibody for a specific protein target is coated on one electrode (or spot) per well. The samples (cell lysates) are added to the well with a solution containing the detection antibody labeled with an electrochemiluminescent (ECL) compound, MSD SULFOTAG™ label, over the course of one or more incubation periods. The total protein present in the sample binds to the capture antibodies immobilized on the working electrode surface; recruitment of the labeled detection antibody by bound phospho-p70S6K completes the sandwich. MSD Read Buffer that provides the appropriate chemical environment for ECL is added and the plate is read using an MSD SECTOR™ Imager. Inside the SECTOR Imager, a voltage is applied to the plate electrodes which cause the labels bound to the electrode surface to emit light. The instrument measures intensity of the emitted light to afford a quantitative measure of the amount of phosphorylated protein present in the sample.
Cells were plated in 96-well flat bottom plates at the required density determined for each cell line and the cells were allowed to equilibrate at 37° C., 5% CO2 overnight. The following day, the cells were treated with Compound 1 over a range of concentrations for one hour in 5% CO2 at 37° C. After the incubation period, the culture medium was removed carefully with an aspirator. The plate was placed on ice and 50 μL of 1× Tris Lysis Buffer were added to each well. The plate was placed on a shaker at 4° C. for one hour to lyse the cells. At that point, the plate was either frozen at −80° C. for later analysis or immediately assayed for phosphoproteins as described below. To monitor interassay variability, Compound 1 was compared among all plates as a reference standard.
The assay plate was incubated with 150 μL of MSD Blocking Buffer for one hour with shaking at room temperature. The plates were washed 3 times with Tris Wash Buffer. Then 35 μL of cell lysate was added to the wells and incubated for one hour with shaking at room temperature. The solution was removed from the wells and the plate was washed 3 times with wash buffer. Twenty-five microliters of the appropriate antibody solution was then incubated for one hour with shaking at room temperature. The solution was removed from the wells and the plate was washed 3 times with wash buffer. Then 150 μL of 1×MSD Read Buffer T was added to each well. The plate was read on the SECTOR Imager plate reader.

[1] = PC3 cell line, read-out: MSD GSK-3β
[2] = PC3 cell line, read-out: MSD p70S6K
[3] = Homo sapiens, HCT-116, HCT116 cell line, IGF, read-out: MSD GSK-3β (IGF)
[4] = Homo sapiens, U-87 MG, U87MG cell line, read-out: MSD GSK-3β
[5] = Homo sapiens, HCT-116, HCT116 cell line, IGF, read-out: MSD p70S6K (IGF)
[6] = Homo sapiens, U-87 MG, U87MG cell line, read-out: MSD p70S6K

Row | SMILES | IC50 (GSK-3β; [1]) [nM] | IC50 (Phospho-p70S6K (T389); [2]) [nM] | other results
1 | CCN1CC(=O)Nc2ncc(-c3ccc(-c4nc[nH]n4)nc3)nc21 [C-124] | > 500 | 289 | –
2 | O=C1CNc2ncc(-c3cccc4[nH]ccc34)nc2N1CCC1CCOCC1 [C-145] | > 500 | > 500 | –
3 | COCCN1C(=O)CNc2ncc(-c3ccc(-c4ncn[nH]4)nc3)nc21 [C-151] | > 500 | 120 | –
4 | CCN1C(=O)CNc2ncc(-c3ccc4[nH]ccc4n3)nc21 [C-166] | > 500 | > 500 | –
5 | COC1CCC(N2CC(=O)Nc3ncc(-c4ccc(-c5ncn[nH]5)nc4)nc32)CC1 (stereo not shown) [C-136] | > 500 | 82 | –
6 | CCN1C(=O)CNc2ncc(-c3ccc(-c4nnc[nH]4)nc3C)nc21 [A-12, 1-ethyl-7-(2-methyl-6-(4H-1,2,4-triazol-3-yl)pyridin-3-yl)-3,4-dihydropyrazino[2,3-b]pyrazin-2(1H)-one] | – | – | IC50 (GSK-3β; [3]): > 2000 nM; IC50 (GSK-3β; [4]): > 2000 nM; IC50 (Phospho-p70S6K (T389); [5]): 846 nM; IC50 (Phospho-p70S6K (T389); [6]): 252 nM
7 | Cc1cc(-c2nc[nH]n2)c(F)cc1-c1cnc2c(n1)N(CC1CCC(O)CC1)CC(=O)N2 (stereo not shown) [C-143] | > 500 | 4 | –
8 | Cc1cc(-c2nc[nH]n2)c(F)cc1-c1cnc2c(n1)N(C1CCC(O)CC1)CC(=O)N2 (stereo not shown) [C-123] | > 500 | 13 | –
9 | COCCN1C(=O)CNc2ncc(-c3cc(F)c(-c4nc[nH]n4)cc3C)nc21 [C-129] | > 500 | 1 | –
10 | CCN1C(=O)CNc2ncc(-c3ccc(-c4ncn[nH]4)nc3)nc21 [C-150] | > 500 | 38 | –
11 | O=C1CN(CC2CCC(O)CC2)c2nc(-c3ccc(-c4nc[nH]n4)nc3)cnc2N1 (stereo not shown) [C-154] | > 5000 | 1520 | –
12 | CO[C@H]1CC[C@H](N2C(=O)CNc3ncc(-c4ccc(-c5nnc[nH]5)nc4C)nc32)CC1 [A-11, 1-((1r,4r)-4-methoxycyclohexyl)-7-(2-methyl-6-(4H-1,2,4-triazol-3-yl)pyridin-3-yl)-3,4-dihydropyrazino[2,3-b]pyrazin-2(1H)-one] | – | – | IC50 (GSK-3β; HCT116 cell line, IGF, read-out: MSD GSK-3β (IGF)): 202 nM; IC50 (GSK-3β; U87MG cell line, read-out: MSD GSK-3β): 479 nM; IC50 (Phospho-p70S6K (T389); HCT116 cell line, IGF, read-out: MSD p70S6K (IGF)): 157 nM; IC50 (Phospho-p70S6K (T389); U87MG cell line, read-out: MSD p70S6K): 93.1 nM
13 | COC1CCC(CN2CC(=O)Nc3ncc(-c4cc(F)c(-c5nc[nH]n5)cc4C)nc32)CC1 (stereo not shown) [C-163] | > 500 | > 500 | –
14 | O=C1CN(CC2CCC(O)CC2)c2nc(-c3ccc(-c4nc[nH]n4)nc3)cnc2N1 (stereo not shown) [C-149] | > 5000 | 173 | –
15 | COCCN1CC(=O)Nc2ncc(-c3ccc(-c4nc[nH]n4)nc3)nc21 [C-135] | > 1500 | > 1500 | –
16 | O=C1CNc2ncc(-c3ccc(-c4nc[nH]n4)nc3)nc2N1C1CCOCC1 [C-152] | > 500 | 20 | –
17 | Nc1cc(-c2cnc3c(n2)N(CCC2CCOCC2)C(=O)CN3)ccn1 [C-115] | > 500 | > 500 | –
18 | Cc1cc(-c2nc[nH]n2)c(F)cc1-c1cnc2c(n1)N(CC1CCC(O)CC1)C(=O)CN2 (stereo not shown) [C-142] | > 500 | 18 | –

Row | SMILES | IC50 (GSK-3β; [1]) [nM] | IC50 (Phospho-p70S6K (T389); [2]) [nM] | other results
19 | O=C1CNc2ncc(-c3ccc(-c4nc[nH]n4)nc3)nc2N1C1CCC(O)CC1 (stereo not shown) [C-140] | > 500 | 70 | –
20 | Cc1nc(-c2nnc[nH]2)ccc1-c1cnc2c(n1)N(C(C)C)C(=O)CN2 [A-13, 1-isopropyl-7-(2-methyl-6-(4H-1,2,4-triazol-3-yl)pyridin-3-yl)-3,4-dihydropyrazino[2,3-b]pyrazin-2(1H)-one] | – | – | IC50 (GSK-3β; [3]): > 2000 nM; IC50 (GSK-3β; [4]): > 2000 nM; IC50 (Phospho-p70S6K (T389); [5]): 941 nM; IC50 (Phospho-p70S6K (T389); [6]): 351 nM
21 | CO[C@H]1CC[C@@H](CN2CC(=O)Nc3ncc(-c4cc(F)c(-c5nc[nH]n5)cc4C)nc32)CC1 [C-160] | > 500 | < 1.5 | –
22 | O=C1CNc2ncc(-c3ccc(O)nc3)nc2N1CCC1CCOCC1 [C-113] | > 500 | > 500 | –
23 | O=C1CN(C2CCC(O)CC2)c2nc(-c3ccc(-c4nc[nH]n4)nc3)cnc2N1 (stereo not shown) [C-153] | > 500 | > 500 | –
24 | O=C1CN(C2CCOCC2)c2nc(-c3ccc(-c4ncn[nH]4)nc3)cnc2N1 [C-125] | > 500 | 73 | –
25 | COC1CCC(N2CC(=O)Nc3ncc(-c4ccc(-c5ncn[nH]5)nc4)nc32)CC1 (stereo not shown) [C-146] | > 500 | 12 | –
26 | COC1CCC(N2C(=O)CNc3ncc(-c4ccc(-c5ncn[nH]5)nc4)nc32)CC1 (stereo not shown) [C-139] | > 500 | 40 | –
27 | CC(C)N1CC(=O)Nc2ncc(-c3ccc(-c4nc[nH]n4)nc3)nc21 [C-134] | > 500 | 172 | –
28 | COCCN1CC(=O)Nc2ncc(-c3cc(F)c(-c4nc[nH]n4)cc3C)nc21 [C-131] | > 500 | 118 | –
29 | Cc1c(-c2cnc3c(n2)N(C2CCOCC2)CC(=O)N3)ccc(-c2nc[nH]n2)c1F [C-111] | > 150 | 58 | –
30 | COC1CCC(N2CC(=O)Nc3ncc(-c4cc(F)c(-c5ncn[nH]5)cc4C)nc32)CC1 (stereo not shown) [C-132] | > 500 | 222 | –
31 | Cc1cc(-c2nc[nH]n2)c(F)cc1-c1cnc2c(n1)N(CC1CCC(O)CC1)C(=O)CN2 (stereo not shown) [C-147] | > 500 | < 1.5 | –
32 | COC1CCC(CN2C(=O)CNc3ncc(-c4ccc(-c5nc[nH]n5)nc4)nc32)CC1 (stereo not shown) [C-159] | > 500 | 6 | –
33 | O=C1CNc2ncc(-c3cccc4[nH]cnc34)nc2N1CCC1CCOCC1 [C-162] | > 5000 | 4750 | –
34 | O=C1CNc2ncc(-c3cccc4[nH]ncc34)nc2N1CCC1CCOCC1 [C-117] | > 5000 | > 5000 | –
35 | O=C1CN([C@H]2CC[C@H](O)CC2)c2nc(-c3ccc(-c4nc[nH]n4)nc3)cnc2N1 [C-144] | > 500 | > 500 | –

Now from value to compound, other results behind:

Row | IC50 (GSK-3β; [1]) [nM] | IC50 (Phospho-p70S6K (T389); [2]) [nM] | SMILES | other results
36 | > 150 | 22 | CO[C@H]1CC[C@@H](N2CC(=O)Nc3ncc(-c4ccc(-c5nc[nH]n5)c(F)c4C)nc32)CC1 [C-110] | –
37 | 99 | 12 | Cc1cc(-c2nc[nH]n2)c(F)cc1-c1cnc2c(n1)N(C(C)C)CC(=O)N2 [C-120] | –
38 | 3930 | 170 | Cc1cc(C(N)=O)ncc1-c1cnc2c(n1)N(C(C)C)C(=O)CN2 [C-118] | –
39 | 2820 | 419 | O=C1CN(CCC2CCOCC2)c2nc(-c3c[nH]c4ncccc34)cnc2N1 [C-169] | –
40 | 33 | 4 | CCN1C(=O)CNc2ncc(-c3cc(F)c(-c4nc[nH]n4)cc3C)nc21 [C-127] | –
41 | 181 | 40 | CC(C)N1C(=O)CNc2ncc(-c3ccc(-c4ncn[nH]4)nc3)nc21 [C-138] | –
42 | 394 | 52 | COC1CCC(N2C(=O)CNc3ncc(-c4cc(F)c(-c5ncn[nH]5)cc4C)nc32)CC1 (stereo not shown) [C-137] | –
43 | 12 | < 0.835 | Cc1cc(-c2nc[nH]n2)c(F)cc1-c1cnc2c(n1)N([C@H]1CC[C@H](O)CC1)C(=O)CN2 [C-130] | –
44 | 240 | 40 | Cc1cc(-c2nc[nH]n2)c(F)cc1-c1cnc2c(n1)N([C@H]1CC[C@@H](O)CC1)C(=O)CN2 [C-155] | –
45 | 3990 | 303 | Nc1ncc(-c2cnc3c(n2)N(CCC2CCOCC2)C(=O)CN3)cn1 [C-116] | –
46 | < 1.5 | < 1.5 | COC1CCC(CN2C(=O)CNc3ncc(-c4cc(F)c(-c5nc[nH]n5)cc4C)nc32)CC1 (stereo not shown) [C-167] | –
47 | 2030 | 184 | CNc1ccc(-c2cnc3c(n2)N(CCC2CCOCC2)C(=O)CN3)cn1 [C-114] | –
48 | 1140 | 480 | O=C1CNc2ncc(-c3ccnc(O)c3)nc2N1CCC1CCOCC1 [C-126] | –
49 | 2790 | 385 | O=C1CNc2ncc(-c3ccnc4[nH]ccc34)nc2N1CCC1CCOCC1 [C-161] | –
50 | 65 | < 1.5 | COC1CCC(N2CC(=O)Nc3ncc(-c4cc(F)c(-c5nc[nH]n5)cc4C)nc32)CC1 (stereo not shown) [C-148] | –
51 | 1 | 21 | Cc1cc(-c2nc[nH]n2)c(F)cc1-c1cnc2c(n1)N(C(C)C)C(=O)CN2 [C-128] | –
52 | 323 | 10 | CCN1CC(=O)Nc2ncc(-c3cc(F)c(-c4nc[nH]n4)cc3C)nc21 [C-119] | –
53 | 323 | 6 | Cc1cc(-c2nc[nH]n2)c(F)cc1-c1cnc2c(n1)N(C1CCOCC1)CC(=O)N2 [C-122] | –
